Reference: PubChem BioAssay (NCI)
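Tested at 5 concentrations; 48 h exposure; 96-well plates; endpoints linearly interpolated, else capped at highest concentration. The concentration for 50% growth inhibition is given as GI50. Definition used: TGI = concentration required for complete inhibition of growth.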

What was measured:
Experiment in all cases: NCI tumour cell line growth inhibition, 48 h
[1] = test system: OVCAR-3 ovarian
[2] = test system: SNB-75 CNS
[3] = test system: DLD-1 colon
[4] = test system: OVCAR-5 ovarian
[5] = test system: MALME-3M melanoma
[6] = test system: DMS 273 small cell lung
[7] = test system: UACC-62 melanoma
[8] = test system: SR leukemia
[9] = test system: PC-3 prostate
[10] = test system: MDA-MB-231 breast

SMILES	TGI [1] [µM]	TGI [2] [µM]	TGI [3] [µM]	TGI [4] [µM]	TGI [5] [µM]	TGI [6] [µM]	TGI [7] [µM]	GI50 [1] [µM]	GI50 [2] [µM]	GI50 [3] [µM]	GI50 [5] [µM]	GI50 [7] [µM]	TGI [8] [µM]	GI50 [4] [µM]	GI50 [9] [µM]	TGI [9] [µM]	GI50 [8] [µM]	GI50 [10] [µM]	TGI [10] [µM]
CS(=O)(=O)N(CCC#N)c1ccc(/C=N/NC(=O)CC(=O)Nc2cccc(Cl)c2)cc1	> 100	> 100	> 100	> 100	> 100	> 100	> 100												
N#CCCN(CCC#N)c1ccc(/C=C2\N=C(COc3ccc(Cl)cc3Cl)OC2=O)cc1	> 100	> 100	> 100	> 100	> 100	> 100	> 100												
COc1cc(N=Nc2ccccc2)cc(/C=N\[N-]C(N)=S)c1[O-].COc1cc(N=Nc2ccccc2)cc(/C=N\[N-]C(N)=S)c1[O-].[Fe+4]	> 100	> 100	> 100		> 100		> 100	> 100	35.2	18.5	59.6	0.378							
CNS(=O)(=O)NN(C)S(=O)(=O)c1ccc(Cl)cc1	> 100	> 100	> 100		> 100	> 100	> 100						> 100						
OCCN(CCO)c1cccc(N(CCO)CCO)c1	> 100	> 100	> 100			> 100	> 100						> 100						
Cn1ccnc1C(c1nccn1C)C(C)(C)[N+](=O)[O-]	> 100	> 100	> 100			> 100	56.6						> 100						
Cn1c(=O)c(Oc2cccc(F)c2)cc2cnc(NC3CCOCC3)nc21	> 25	> 25		> 25	> 25		> 25	> 25	> 6.38		> 25	> 25	> 25	> 25	> 25	> 25	> 25	> 25	> 25
O=C1CCC2CCc3cccc4oc1c2c34 (stereo unspecified)	> 100	> 100	> 100			> 100	> 100												
CC1=C(C(=O)Nc2ccc3[nH]ncc3c2)C(c2ccc(F)cc2)NC(=O)N1 (stereo unspecified)	> 25	> 25		> 25	> 25		> 25	> 25	6.51		> 25	> 25	> 25	> 25	> 25	> 25	19.2	> 25	> 25
COc1cc(C(=O)/C=C/c2c(-c3ccc(F)cc3)nc3sc(C)cn23)cc(OC)c1OC	> 100	> 100		> 100	> 100		> 100	3.66	50.1		2.69	2.91	> 100	> 100	2.41	> 100	0.802	5.38	> 100
O=C1O[C@H](C(Cl)(Cl)Cl)N2CCCC12 (stereo partly specified)	> 100	> 100		> 100	> 100	> 100	> 100												
O=c1[nH]cnc2c1nnn2C1OC(CO)C(O)C1O (stereo unspecified)	4.98	> 100		> 100	> 59		42.8	0.816	2.43		2.64	4.65	> 100	26.6	2.43	> 100	3.37	4.49	> 100
O=[N+]([O-])c1cc(O)c(O)cc1-c1cn2ccsc2n1	64	> 100		> 100	> 100		> 100	23.6	> 100		> 100	54.2	> 100	> 100	63.4	> 100	41.3	59.2	> 100
Cc1ccccc1S(=O)(=O)N1[C@H](c2ccc(Cl)cc2)C(C(=O)N[C@@H](Cc2ccccc2)C(N)=O)=C[C@@H]1C(C)(C)C	14	12		11.9	20.1		12.8	6.12	4.85		10.2	5.76	15.4	5.62	2.39	12.2	3.91	6.94	14.3
O=C(O)CNS(=O)(=O)c1ccc(NC(=O)c2ccc(F)cc2)cc1	> 100	> 100	> 100	> 100	> 100	> 100	> 100												
N#Cc1cccc(C(=O)c2cnn(-c3ccc(F)cc3)c2N)c1	> 25	> 22.4		> 25	> 25		> 25	> 25	> 11.5		> 25	> 25	> 25	> 25	> 25	> 25	> 25	> 25	> 25
Oc1ccc2occ3c2c1CCC3	> 100	> 100	> 100			> 100	> 100												
O=c1[nH]c(=O)n(C2CC(O)C(CO)O2)cc1C(OCC(F)(F)F)OCC(F)(F)F (stereo unspecified)	> 100	> 100	> 100	> 100	> 100	> 100	> 100												
CCON=C1C(C)(C)C(C)(C)C(C)(C)C1(C)C	> 100	> 100		> 100	> 100		> 100						> 100			> 100			> 100

SMILES	TGI [1] [µM]	TGI [2] [µM]	TGI [3] [µM]	TGI [4] [µM]	TGI [5] [µM]	TGI [6] [µM]	TGI [7] [µM]	GI50 [1] [µM]	GI50 [2] [µM]	GI50 [3] [µM]	GI50 [5] [µM]	GI50 [7] [µM]	TGI [8] [µM]	GI50 [4] [µM]	GI50 [9] [µM]	TGI [9] [µM]	GI50 [8] [µM]	GI50 [10] [µM]	TGI [10] [µM]
CCN(CC)c1ccc(N=C2C=C(C(=O)Nc3ccc(S(C)(=O)=O)cc3)C(=O)c3ccccc32)c(C)c1	> 100	> 100		> 100	> 100		> 100	3.78	3.08		30.9	0.734	> 100	> 100	1.05	> 100	2.08	4.53	> 100
CCN(CC)CCOc1ccc(Nc2ncc3cc(-c4c(Cl)cccc4Cl)c(=O)n(CCOC)c3n2)cc1	2.96	0.0454		7.09	3.95		7.04	0.483	0.00601		0.39	0.206	2.15	0.137	3.49	18.6	0.459	0.0432	0.813
COc1ccc(Nc2ccnc(NCCNc3ccnc4cc(Cl)ccc34)n2)cc1	10.3	2.52		7.13	3.87		3.62	2.61	1.17		1.93	1.8	7.51	1.29	1.85	16	2.12	2.01	6.71
CN(C)c1ccc(/C=C/C(=O)C(C)(C)C)cc1Br	> 100	70.3	43.9	> 100	> 100		34.2												
O=C1c2ccccc2-c2nccc3cc(Cl)nc1c23	1.79	9.56		> 100	2.42		13	0.631	1.93		0.908	2.77	4.18	> 72.5	2.96	> 100	1.34	4.62	> 73.4
C=C1C(=O)O[C@H]2[C@H]1CC/C(CNS(=O)(=O)c1ccc3ccccc3c1)=C\CC[C@@]1(C)O[C@@H]21	2.12	23.6		4.82	4.59		4.01	0.805	10.5		1.94	1.64	7.12	1.99	7.59	21.1	1.23	2.15	5.36
COc1ccc(-c2nsc3c2NC(=O)CC3c2ccc3c(c2)OCO3)cc1 (stereo unspecified)	10.4	9.97		> 100	> 100		> 100	0.874	1.49		0.77	1.21	39.3	3.19	2.01	> 100	0.401	1.13	11.6
Cc1cc2c(cc1C)[n+](=O)c(C(=O)/C=C/c1ccc(Cl)cc1)c(C)n2[O-]	> 100	45.5	70.9	> 100	> 100	> 100	44.3												
O=C(CC1(O)C(=O)Nc2ccc(Br)cc21)c1ccc(Cl)cc1 (stereo unspecified)	> 100	77.7	> 100	> 100	> 100		> 100												
CC/C=C\C/C=C\C[C@H](O)C/C=C1/C(=O)C=C[C@H]1C/C=C\CCC(=O)OC	7.71	> 8.25		> 8.25	> 8.25		7.16	2.08	> 8.25		2.2	1.79	> 8.25	5	3.75	> 8.25	1.61	3.5	> 8.25
CC1CCC2(NC1)OC1CC3[C@@H]4CC=C5C=CCC[C@]5(C)C4CC[C@]3(C)C1C2C (stereo partly specified)	80.5	80.6	58.2	50	35.3		42.5												
O=C1c2ccccc2-c2c1c1ccc([N+](=O)[O-])cc1c(=O)n2CCNCCCNCCn1c2c(c3ccc([N+](=O)[O-])cc3c1=O)C(=O)c1ccccc1-2	5.19	2.41		6.42	30.8		2.03	0.638	0.445		0.626	0.372	18.8	0.673	0.547	9.18	0.005	0.033	0.53
NC1CCCCC1N.O=C([O-])P(=O)([O-])[O-].[Na+].[Pt+4] (stereo unspecified)	> 100	> 100	> 100	> 100	> 100		> 100	> 100	> 100	> 100	84.3	> 100		> 100					
O=c1[nH]c(-c2ccccc2)nc2ccc(Cl)cc12	> 100			> 100	> 100	> 100							> 100						
COc1ccc(Nc2ncccc2/C=C/C(=O)c2cc(OC)c(OC)c(OC)c2)cc1	2.99	2.37		3.83	2.87		3.3	1.64	1.15		1.4	1.56	3.98	1.97	2.82	8.71	0.464	1.94	5.74
CCCCCCCCCCCCCC[P+](CCCCCC)(CCCCCC)CCCCCC	0.295				0.0721		1.9	0.0345	0.125		0.0271	0.0422	0.0608	0.267	0.03	0.125	0.0196	0.0596	1.49
CCNc1c(C(=O)N(CC)CC)c(=O)[nH]c2ncccc12	> 100	> 100	> 100	> 100	> 100	> 100	> 100												
COc1cc([C@@H]2c3cc4c(cc3C(Br)[C@H]3COC(=O)[C@H]23)OCO4)cc(OC)c1OC (stereo partly specified)	0.559	> 100		> 100	> 100		> 100	0.213	0.271		51.3	0.187	> 100	0.552	0.438	> 100	0.117	0.296	
CC(=N\O)/C(C)=N/O.CC(=N\O)/C(C)=N/O.CC(=N\O)/C(C)=N/O.CC(=N\O)/C(C)=N/O.[Cu].[Cu]	43.7	31.8		34	32.4		30.8	22.6	17.1		17.7	17.1	61.4	19.3	16.7	30.3	24	20.3	35.6
